The source of these data is patent EP4700021A1, “NOVEL COMPOUND AND PHARMACEUTICAL COMPOSITION COMPRISING SAME AS ACTIVE INGREDIENT” (Sapiensbio Inc., priority 2023, dated 2025).

Structures are written as SMILES.

The subject of assay [1] is ACTA2 mRNA. Briefly: qRT-PCR of ACTA2 mRNA in TGF-β1-treated human renal fibroblasts. Format: cell-based. The following applies: human renal fibroblasts (HRFs); 10 and 50 µM; TGF-β1 (5 ng/mL); 48 hours; FIG. 3. As to the method: (§1) Here, to confirm the degree of fibrosis, ACTA2 or COL1A1 mRNA, which can express α-SMA or collagen type 1, was used as an indicator. α-SMA is a marker for activated myofibroblasts, which are the main effector cells of fibrosis, and myofibroblasts with increased α-SMA expression are known to cause fibrosis by producing a fibrotic protein such as collagen type 1.
(§2) Specifically, human renal fibroblasts (HRFs) were seeded, and cultured for 24 hours under a nutrient-deficient condition for effective cell activation. Afterward, the cells were treated with the compounds (Compounds 51 and 41) according to the present invention, together with TGF-β1 (5 ng/mL) to induce fibrosis, at 10 and 50 µM for 48 hours, respectively, and then cultured to extract RNA therefrom. The RNA was used to perform qRT-PCR. From the experimental results, the mRNA expression levels of ACTA2 and COL1A1 were confirmed, thereby verifying the therapeutic effects of the compounds.

The test system of another assay is F-actin. The experiment in a line: inhibition of F-actin formation (rhodamine phalloidin staining) in TGF-β1-treated MRC-5 cells. The conditions noted are these: compound 10 µM, TGF-β1 (5 ng/mL), 72 hours, FIG. 1. Type of assay: cell-based, human. As to the method:
In this experimental example, 2 hours after human lung-derived fibroblasts (MRC-5 cells) were treated with Compound 41 (10 µM) or Compound 51 (10 µM) according to the present invention, or DMSO, dissolved in 0.5% FBS-containing serum, TGF-β1 (5 ng/mL) was treated to induce fibrosis. After 72 hours, the cells were immobilized with a 2% paraformaldehyde solution for 10 minutes, and to impart cell membrane permeability, a 0.1% Triton X-100 solution was treated for 10 minutes, and a 1% bovine serum albumin (BSA) solution was treated to prevent non-specific binding. For immunostaining, anti-GAPDH (BIO-RAD) was first treated as a primary antibody, and Alexa Fluor™ Plus 488 for GAPDH labeling was used as a secondary antibody. For staining of an actin cytoskeleton, particularly, F-actin, rhodamine phalloidin (Cytoskeleton) was used to confirm the increase and decrease in F-actin caused by the compounds. The immunohistochemical experimental results were confirmed with a STELLARIS 5 confocal microscope (Leica), F-actin stained with rhodamine phalloidin was standardized with GAPDH labeled with Alexa Fluor™ Plus 488 for quantification.

For the next assay, the system named is COL1A1 mRNA. The experiment in a line: qRT-PCR of COL1A1 mRNA in TGF-β1-treated human renal fibroblasts. The following applies: human renal fibroblasts (HRFs); 10 and 50 µM; TGF-β1 (5 ng/mL); 48 hours; FIG. 3. Type of assay: cell-based. As to the method: as §1, §2
The next assay deals with α-SMA. Briefly: in vitro α-SMA expression inhibition (immunostaining, confocal microscopy) in TGF-β1-treated MRC-5 cells. Format: cell-based, human. The conditions noted are these: Homo sapiens, TGF-β1 (5 ng/mL), 72 hours, standardized using GAPDH. An excerpt: When scars are generated in tissue, fibroblasts undergo fibroblast-to-myofibroblast transition (FMT), and the resulting myofibroblasts produce the extracellular matrix, leading to tissue fibrosis. α-SMA is a representative biomarker of myofibroblasts, and its expression greatly increases as FMT progresses. Accordingly, through the evaluation of α-SMA expression inhibitory activity, the efficacy of the compounds in inhibiting fibrosis may be evaluated. Therefore, the inhibitory activity of the compounds of the present invention on α-SMA expression was evaluated in cells. To more accurately evaluate the inhibition of α-SMA expression, IC50 values were determined by treating human lung-derived fibroblasts (MRC-5 cells) with the compounds of the present invention in a concentration-dependent manner.
Specifically, 2 hours after the MRC-5 cells were treated with DMSO or compounds dissolved in serum containing 0.5% fetal bovine serum (FBS) in a concentration-dependent manner, fibrosis was induced by treatment with TGF-β1 (5 ng/mL). After 72 hours, the cells were immobilized with a 2% paraformaldehyde solution for 10 minutes, and to impart cell membrane permeability, a 0.1% Triton X-100 solution was treated for 10 minutes, and a 1% bovine serum albumin (BSA) solution was treated to prevent non-specific binding. For immunostaining, anti-GAPDH (BIO-RAD) was first treated as a primary antibody, and Alexa Fluor™ Plus 555 for GAPDH labeling was used as a secondary antibody. For α-SMA staining, an FITC fluorescence-tagged α-SMA primary antibody was used, and thus the increase and decrease in α-SMA caused by the compounds were evaluated. The immunohistochemical experimental results were confirmed with a STELLARIS 5 confocal microscope (Leica), and FITC-stained α-SMA was standardized using GAPDH labeled with Alexa FluorTM Plus 555 for quantification. The IC50 of the compounds according to the present invention was calculated through statistical analysis (linear mixed effects model). […]

Assay [2] relates to ACTA2 mRNA. The experiment in a line: qRT-PCR of ACTA2 mRNA in TGF-β1-treated human hepatic stellate cells. Type of assay: cell-based. The following applies: human hepatic stellate cells (HHSCs); 10 and 50 µM; TGF-β1 (5 ng/mL); 48 hours; FIG. 2. As to the method: Here, to confirm the degree of fibrosis, ACTA2 or COL1A1 mRNA that can express α-SMA or collagen type 1 was used as an indicator. α-SMA is a marker of activated myofibroblasts, which are the main effector cells of fibrosis, and myofibroblasts with increased α-SMA expression are known to cause fibrosis by producing a fibrotic protein such as COL1A1.
Specifically, human hepatic stellate cells (HHSCs) were seeded, and cultured for 24 hours under a nutrient-deficient condition for effective cell activation. Afterward, the cells were treated with the compounds (Compounds 51 and 41) according to the present invention, together with TGF-β1 (5 ng/mL) to induce fibrosis, at 10 and 50 µM for 48 hours, respectively, and then cultured to extract RNA therefrom. The RNA was used to perform qRT-PCR. From the experimental results, the mRNA expression levels of ACTA2 and COL1A1 were confirmed, thereby verifying the therapeutic effects of the compounds.

As for `N[C@H]1CCN(C(=O)N2CCN(Cc3ccc(F)cc3)c3ccccc32)C1.O=C(O)/C=C/C(=O)O` [Compound 41, (S)-(3-aminopyrrolidin-1-yl)(4-(4-fluorobenzyl)-3,4-dihydroquinoxaline-1(2H)-yl)methanone fumaric acid salt], the “ACTA2 mRNA expression” value in the assay on ACTA2 mRNA [1] and with ACTA2 mRNA [2] was “effectively inhibit the mRNA expression” each time. In addition, the “intracellular F-actin formation” value in the assay with F-actin was “reduced to a level similar to that of the group not treated with TGF-β1”. The “COL1A1 mRNA expression” value in the assay on COL1A1 mRNA is given as “effectively inhibit the mRNA expression”. Also, the half-inhibitory concentration (IC50) in the assay with α-SMA was below 1000 nM.
On to `CC(C)CN[C@H]1CCN(C(=O)N2CCN(Cc3ccccn3)c3ccccc32)C1.O=C(O)/C=C/C(=O)O` [Compound 51, (S)-(3-(isobutylamino)pyrrolidin-1-yl)(4-(pyridin-2-ylmethyl)-3,4-dihydroquinoxaline-1(2H)-yl)methanone fumaric acid salt], for which the “ACTA2 mRNA expression” value in the assay on ACTA2 mRNA [1] and in the assay on ACTA2 mRNA [2] was “effectively inhibit the mRNA expression” throughout. In addition, in the assay with F-actin, the “intracellular F-actin formation” value was “reduced to a level similar to that of the group not treated with TGF-β1”. For the same molecule, the “COL1A1 mRNA expression” value in the assay with COL1A1 mRNA was “effectively inhibit the mRNA expression”. In the assay on α-SMA, this molecule showed an IC50 below 1000 nM.
